# Results reported in PMC10754035 (Cancer Research Communications, 2023).
# Like-named read-outs stand apart in the source and are kept apart here.
# What was measured:
# KRAS G12D [1] = target: T1, KRAS G12D (Homo sapiens, UniProt P01116, G12D); design: method as in PMID 31332011; conditions: ITC; cited from earlier work
# T1 construct: Human His-tagged KRAS4B (1-169) G12D, G12V and G12C were custom synthesized; 6His (pET-28a(+)-TEV vector) (N); host or cells: E. coli BL21 star (DE3)
# [2] = target: T2, GTP-KRAS G12D binding to GST-RBD (Homo sapiens, UniProt P01116, G12D); test: KRAS G12D/GST-RBD pulldown assay; format: biochemical; conditions: for IC50: GST pulldown, Fig. 2 legend, read-out: IC50, inhibition of GTP-KRAS G12D/GST-RBD binding
# T2 construct: Human His-tagged KRAS4B (1-169) G12D, G12V and G12C were custom synthesized; Addgene (GST-RBD) Addgene 13338; host or cells: E. coli BL21 star (DE3)
# T2 sequence (P01116 1-169 isoform P01116-2 G12D): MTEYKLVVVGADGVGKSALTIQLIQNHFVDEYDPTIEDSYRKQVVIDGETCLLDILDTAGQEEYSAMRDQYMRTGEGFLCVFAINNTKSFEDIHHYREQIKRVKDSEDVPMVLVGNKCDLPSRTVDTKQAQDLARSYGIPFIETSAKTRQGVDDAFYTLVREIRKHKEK
# Procedure: For pulldown experiment, KRAS G12D was preloaded with either GTP or GDP as described above. GDP- or GTP-bound KRAS G12D proteins (250 nmol/L in 100 µL) were then incubated with indicated compound at 37°C for 15–16 minutes. GST-RBD (final 500 nmol/L) was then added and the mixture rocked at 37°C for 1 hour. Pierce glutathione agarose beads (Thermo Fisher Scientific; 20 µL) were then added and the mixture rocked at 37°C for 1 hour. The beads were then washed and the samples were processed for SDS-PAGE and Western blotting with respective antibodies to check the interaction between KRAS-GTP and GST-RBD proteins in presence or absence of the compounds. All the protein dilutions and washes were carried out in a buffer containing 25 mmol/L Tris (pH 7.5), 100 mmol/L NaCl, 5 mmol/L MgCl2, 1% NP-40, 5% glycerol, and 0.1 mmol/L DTT.
# Expression and purification of GST-RBD: The Raf1-GST-RBD in pGEX-2T vector in DH5α cells was obtained from Addgene (Raf1 GST RBD 1-149, Plasmid catalog # 13338). GST-RBD plasmid DNA was transformed in BL21*(DE3) bacteria, streaked on agar plate to obtain the colonies . A distinct colony was picked and grown in ampicillin selection media to OD600 of around 0.6-0.8 before induction with IPTG (0.5 mM). Bacterial pellet was resuspended with lysis buffer (50 mM Tris HCL (pH 7.5), 150 mM NaCl, 0.5% Triton X-100, 5 mM MgCl2, 1 mM DTT, 10% Glycerol, 3 mM β-mercaptoethanol) and homogenized. The homogenized lysate was centrifuged at 14000 rpm at 4 °C for 40 min and the resulting supernatant was collected and filtered. The filtered supernatant was incubated with glutathione agarose (Pierce^TM) beads (Thermo Scientific, USA) at 4 °C for 60 min. After incubation, beads and lysate suspension was passed through Bio-Rad Econo column. The beads were washed using lysis buffer (as described above), and the GST-RBD eluted with elution buffer (50 mM Tris HCL (pH 7.5), 150 mM NaCl, 0.5% Triton X-100, 5 mM MgCl2, 1 mM DTT, 10% Glycerol, 10 mM Glutathione). Eluted GST-RBD protein fractions were buffer exchanged into 25 mM Tris (pH 7.5), 150 mM NaCl, 0.5 mM DTT and 5 mM MgCl2 buffer and stored at -80°C.
# GTP and GDP nucleotide exchange for GST-RBD pull down: KRAS protein was exchanged with GTP (Sigma, USA) and GDP (Sigma, USA) using EDTA- loading procedure. The RAS proteins (235 µM final) were incubated with ~40-fold molar excess of EDTA (10 mM final), and ~45-fold molar excess of either GDP or GTP for 90 min at 37°C. After incubation, the sample was kept on ice for 10 minutes before incubating with ice-cooled 1M MgCl2 (65 mM final) for 20 minutes to stop the reaction. To remove excess unbound nucleotide, EDTA and magnesium, the proteins were re-buffered using PD10 columns (GE Life Sciences) into (25 mM Tris (pH 7.5), 150 mM NaCl, 0.5 mM DTT and 5 mM MgCl2) buffer and concentrated using Millipore spin ultrafiltration devices (10,000 Da cut off, 4,000 x g). The protein concentration was measured using Pierce Rapid GOLD BCA Protein Assay Kit (Thermo Scientific, USA) and aliquots were stored in -80°C.
# KRAS G12D [3] = target: T1, KRAS G12D; test: Isothermal titration calorimetry, KRAS G12D; format: binding; conditions: ITC, KRAS G12D-NE (non-exchanged), 25°C
# Procedure: All isothermal titration calorimetry (ITC) experiments were carried out at 25°C on a MicroCal PEAQ ITC Automated (Malvern). […] The final ITC buffer in the syringe and the cell was 25 mmol/L Tris HCl (pH 8.0), 100 mmol/L NaCl, 0.1 mmol/L DTT, 5% glycerol, 1% NP40, 5 mmol/L MgCl2, and 5% DMSO. ITC titration experiments were carried out with 19 injections, 2 µL per injection, and 150 seconds spacing between each injection. Reference cell power was set to 5 µcal/second and stirring speed was 750 rpm. Data were analyzed using a one site binding model with the Malvern analysis software. All ITC experiments were performed at the biophysical facility at the Institute for Structural Biology, Drug Discovery and Development (ISB3D) at Virginia Commonwealth University (Richmond, VA) and the Massey Cancer Center.
# Expression and purification of RAS proteins: Human His-tagged KRAS4B (1-169) G12D, G12V and G12C were custom synthesized and cloned into pET-28a(+)-TEV vector to generate pET-28a(+)-6His-KRAS (1-169) plasmids by GenScript USA Inc., Piscataway, NJ. The proteins were expressed and purified as described below. The full length biotinylated human KRAS4B G12D (His6-MBP-tev-Avi-Hs.KRAS4b G12D (2-188) protein was obtained from Dr Dominic Esposito and Dr. William Gillette from the NCI RAS Initiative at the Frederick National Laboratory. Avi-KRAS4b (2-188) G12D was cloned, expression and purified as described previously (1,2).
# Expression and purification of KRAS proteins: BL21 star (DE3) competent cells were transformed with pET-28a(+)-6His-KRAS (1-169) plasmids from GenScript, and the resulting colonies were picked under kanamycin selection. The colonies were grown in LB broth and induced with 0.5mM IPTG for 4 hours when OD reached 0.6-0.8. Bacteria pellets were lysed in 25mM Tris HCL (pH7.8) buffer containing 300mM NaCl, 5mM MgCl2, 10mM Imidazole, 5% Glycerol and 3mM β-mercaptoethanol. Membrane filter-cleared lysate supernatants were incubated with HisPur Ni-NTA resin (Thermo scientific) in an oscillating platform at 4°C for 50 minutes. Econo disposable column (Bio-Rad) was used for washing the beads 3 times with 25mM Tris HCl (pH7.8), 300mM NaCl, 5mM MgCl2, 5% Glycerol buffer with 10mM, 20mM and 30mM Imidazole, respectively. Elution was carried with 25mM Tris HCl (pH7.8), 300mM NaCl, 5mM MgCl2, 5% Glycerol and 500mM Imidazole buffer. After confirming the eluted fraction purity on SDS-PAGE gel, proteins fractions were further purified using HiLoad 16/600 superdex 75 PG column in AKTA system. Protein was eluted in 25mM Tris HCL (pH7.8), 150mM NaCl, 5mM MgCl2 and 0.5mM DTT. KRAS protein aliquots were stored in -80°C.
# GCP and NH-GDP nucleotide exchange for ITC: KRAS G12D protein in 25 mM Tris HCL (pH 8.0), 1 mM Calcium Chloride Dihydrate and 200 mM (NH4)2SO4 buffer was added to alkaline phosphatase beads (Sigma, USA) (2U per mg of KRAS) and to non-hydrolysable nucleotide analogs, GCP (β,γ-Methyleneguanosine 5′-triphosphate sodium salt, Sigma, USA) or GDP-NH (Guanosine 5′-[β-thio]diphosphate trilithium salt, Sigma, USA) in molar ratio of 10:1 (Nucleotide:KRAS). The reaction mixture was incubated with gentle rotation for 14-18 hrs at 4 °C. After incubation, the mixture was centrifuged at 1500 g, 4°C to remove the alkaline phosphatase beads. MgCl2 (20 mM) and an additional amount of GCP or NH-GDP in molar ratio of 5:1 (Nucleotide:KRAS) were added, and incubated at room temperature for 1 hr. After incubation, nucleotide exchanged protein was desalted and buffer exchanged at 4 °C using PD-10 column (Catalog # 17085101, GE Healthcare, USA), into a final buffer containing 25 mM Tris HCL (pH 7.5), 150 mM NaCl, 5 mM MgCl2 and 0.5 mM DTT. Buffer exchanged protein was concentrated using Amicon ultra centrifugal filter-10K cut off (Catalog # UFC501024, MilliporeSigma, USA). The protein concentration was measured using Pierce Rapid GOLD BCA Protein Assay Kit (Thermo Scientific, USA) and aliquots were stored in -80°C.
# T1 sequence (P01116 1-169 isoform P01116-2 G12D): as above
SMILES,Kd (KRAS G12D [1]) [nM],IC50 [2] [nM],Kd (KRAS G12D [3]) [nM],loss of potency relative to KRB-456 ([2]; GST pulldown IC50)
Cn1cnc(Cn2ccc3ccc(CNCc4[nH]c5ccccc5c4[C@H]4NC(=O)c5ccc(O)cc54)cc32)c1 [BI-2852],740,–,–,–
COC(=O)C1C2C3(C)C(=O)C=CC2(OC3=O)C2CCC3(CI)CC12CC3=O (centres unmarked) [IB-21G],–,360,641,–
C=C1C[C@]23C[C@@]1(OC(C)=O)CC[C@H]2[C@@]12C=CC(=O)[C@@](C)(C(=O)O1)[C@H]2[C@@H]3C(=O)OC [IB-21J],–,2020,4810,about 10 fold
C=C1C[C@]23C[C@@]1(O)CC[C@H]2[C@@]12C=CC(=O)[C@@](C)(C(=O)O1)[C@H]2[C@@H]3C(=O)NCc1ccccc1 [IIA-15D],–,10800,11600,–
